Tests used:
Assay type in all cases: cell-based
[1] = system: Candida albicans ATCC 10231; test: Bactericidal effect of antimicrobial composition against Candida albicans
Protocol: 1) Testing strain: Candida albicans ATCC 10231, the 5-6 generations; provide by the “Reserve Center of Chinese Microbial Reservation Committee”.
The testing sample was diluted for 2, 4, 8, 16, 32, 64, 128 and […] times using standard hard water, then reacted with ATCC 10231 for 1 min, 5 min, 10 min.
(§1) 2. Testing Methods and Standards:
(§2) <<Technical Standard for Disinfection>> (2002 Edition)
(§3) GB15979-2002 <<Technical standard for testing disinfection product>> “Procedures for testing bactericide effect”
The bactericidal effect of antimicrobial composition against Candida albicans ATCC10231 at 20±1° C. temperature is shown in table 6.

Eschetichia coli 8099 = test: Bactericide effect of antimicrobial composition against Eschetichia coli
Protocol: 1) Testing strain: Eschetichia coli 8099, the 5-6 generations were used; provide by the “Reserve Center of Chinese Microbial Reservation Committee”.
The testing sample was diluted for 2, 4, 8, 16, 32, 64, 128 and 256 folds using standard hard water, then reacted with Eschetichia coli 8099 for 1 min, 5 min, 10 min.
as §1, §2, §3

[2] = system: Staphylococcus aureus ATCC6538; test: Bactericide effect of antimicrobial composition against Staphylococcus aureus
Protocol: 1) Testing strain: Staphylococcus aureus ATCC6538, 5-6th generations, provided by the reserve center of China microbial reservation committee.
The testing sample was diluted for 2, 4, 8, 16, 32, 64, 128 and […] folds using standard hard water, then reacted with ATCC6538 for 1 min, 5 min, 10 min.
as §1, §2, §3

N,N-di-n-decyl-N,N-dimethyl-ammonium 5-oxopyrrolidine-2-carboxylate [DDAPC]
minimum inhibiting concentrations ([1]; reacted 1 min): 0.0016% | minimum inhibiting concentrations ([1]; reacted 5 min): 0.0008% | minimum inhibiting concentrations ([1]; reacted 10 min): 0.0004% | minimum inhibiting concentrations (Eschetichia coli 8099; reacted 1 min): 0.006% | minimum inhibiting concentrations (Eschetichia coli 8099; reacted 5 min): 0.003% | minimum inhibiting concentrations (Eschetichia coli 8099; reacted 10 min): 0.003% | minimum inhibiting concentrations ([2]; reacted 1 min): 0.0016% | minimum inhibiting concentrations ([2]; reacted 5 min): 0.0004% | minimum inhibiting concentrations ([2]; reacted 10 min): 0.0004%

Reference: patent US9132111B2, “Topical antimicrobial compositions” (priority 2011, dated 2015)
